Reference: article PMC11999338, “Factor XI localization in human deep venous thrombus and function of activated factor XI on venous thrombus formation and hemostasis” (Research and Practice in Thrombosis and Haemostasis, 2025)
Entries after “also recorded” stand apart in the source; their conditions may differ.

Key:
[1] = system: PT and aPTT; experiment: Coagulation parameters (PT, aPTT) after oral administration in rabbits, denudation/stenosis model; format: in vivo, rabbit
Method: The protocols of the venous thrombosis and skin bleeding models in rabbits were as follows (Supplementary Figure 2). First, fasting rabbits were orally administered a solvent as a control (n = 10), a FXIa inhibitor (ONO-1600586, 5 mg/kg, n = 10; 15 mg/kg, n = 10; and 50 mg/kg, n = 11), or a FXa inhibitor (rivaroxaban, 1.5 mg/kg, 5 mg/kg, and 15 mg/kg, n = 10 each) using a Nelaton catheter of 5 mm diameter (IZUMO Health Co, Ltd) 90 minutes before thrombus formation. The thrombus formation and bleeding were performed under general anesthesia through the subcutaneous injection of a mixture of medetomidine hydrochloride (0.08 mg/kg body weight), butorphanol tartrate (0.2 mg/kg), and midazolam (0.4 mg/kg). Additional anesthesia with one-third amount of the above-mentioned mixture of drugs was administered 80 minutes after the first injection, and all surgical operations proceeded under aseptic conditions.
Blood samples were collected from the central ear arteries of rabbits before and 75 minutes and 4.5 hours after the administration of the solvent, ONO-1600586, and rivaroxaban in 3.8% sodium citrate (9:1 v/v) using 21-gauge needles. Plasma samples were centrifuged at 1500 × g for 15 minutes at room temperature. Prothrombin time (PT) and activated partial thromboplastin time (aPTT) were measured using a coagulation timer (KC-1 Delta, Tcoag Ireland Ltd) and reagents (aPTT: ACTIN, Siemens; PT: THROMBOCHECK PT+, Sysmex).

[2] = system: human thrombus formation in vitro; experiment: In vitro human blood perfusion in flow chamber on collagen and tissue factor (70/s); format: cell-based; conditions: rivaroxaban 1 μmol/L, low-shear 70/s
Method: The Ethics Committee of the University of Miyazaki approved this study (approval number O-1160). The Collagen Reagent HORM (Takeda Pharmaceutical, 20 μg/mL) and recombinant tissue factor (Dade Innovin, ×1000, Siemens) were immobilized on glass coverslips (24 × 50 mm) in parallel-plate flow chambers, as described above. Blood from healthy human volunteers who were not on medication was collected using 21-gauge needles into plastic syringes containing a corn trypsin inhibitor (Molecular Innovations, final concentration 10 μg/mL). Anticoagulated whole blood was used for the perfusion. The solvent (n = 10), FXIa inhibitor (ONO-1600586, 3 μmol/L, n = 10) or FXa inhibitor (rivaroxaban, 1 μmol/L, n = 10), and mepacrine (Sigma-Aldrich, final concentration 5 μM) were added to the blood before perfusion. Blood samples were perfused through the chamber using a syringe pump (KDS100, KD Scientific Inc) at a constant flow rate (15 mL/h) to achieve wall shear rates of 70/s. Finally, the surface covering area, fibrin-immunopositive area, and the number of neutrophils were analyzed as described above.
The pre-and postperfused blood samples were collected into a tube containing 3.8% sodium citrate anticoagulant (9:1 v/v). Plasma samples were centrifuged at 1500 × g for 15 minutes at room temperature. FXIa and FXa activities were measured using an automatic blood coagulation analyzer (ACL-TOP, Werfen), as well as FXI-deficient plasma (HemosIL Factor XI Deficient Plasma and HemosIL SynthASil APTT, Werfen) and FX-deficient plasma (HemosIL Factor X Deficient Plasma and HemosIL RecombiPlasTin, Werfen). The plasma levels of prothrombin fragment 1 + 2 were measured using an enzyme-linked immunosorbent assay (Enzygnost F1 + 2 Monoclonal, Siemens).

[3] = system: PT and aPTT; experiment: PT and aPTT after oral administration in rabbit stasis model; format: in vivo; conditions: rabbits, stasis model, 1, 3, and 7 hours; ONO-1600586 50 mg/mL, rivaroxaban 15 mg/mL (so in the source)
Method: The protocols of venous thrombosis by stasis were as follows (Supplementary Figure 4). First, fasting rabbits were orally administered a solvent as a control (n = 8), a FXIa inhibitor (ONO-1600586, 50 mg/kg, n = 8), or a FXa inhibitor (rivaroxaban, 15 mg/kg, n = 8) using a Nelaton catheter of 5 mm diameter (IZUMO Health Co, Ltd) 60 minutes before thrombus formation. The process of thrombus formation was performed under general anesthesia through the subcutaneous injection of a mixture of medetomidine hydrochloride (0.08 mg/kg body weight), butorphanol tartrate (0.2 mg/kg), and midazolam (0.4 mg/kg).
Blood samples were collected from the central ear arteries of the rabbits before and 1, 3, and 7 hours after administering the solvent, ONO-1600586, and rivaroxaban in 3.8% sodium citrate (9:1 v/v) using 21-gauge needles. Plasma samples were centrifuged at 1500 × g for 15 minutes at room temperature. PT and aPTT were measured using a coagulation timer (KC-1 Delta, Tcoag Ireland Ltd) and reagents (aPTT: ACTIN, Siemens; PT: THROMBOCHECK PT+, Sysmex). Data are expressed as a ratio of PT and aPTT to those before administration.

[4] = system: jugular vein thrombus; experiment: Stasis-induced thrombus formation in rabbit jugular veins; format: in vivo; conditions: rabbits, oral ONO-1600586 50 mg/kg or rivaroxaban 15 mg/kg 60 minutes before stasis, 6 hours stasis
Method: The protocols of venous thrombosis by stasis were as follows (Supplementary Figure 4). First, fasting rabbits were orally administered a solvent as a control (n = 8), a FXIa inhibitor (ONO-1600586, 50 mg/kg, n = 8), or a FXa inhibitor (rivaroxaban, 15 mg/kg, n = 8) using a Nelaton catheter of 5 mm diameter (IZUMO Health Co, Ltd) 60 minutes before thrombus formation. The process of thrombus formation was performed under general anesthesia through the subcutaneous injection of a mixture of medetomidine hydrochloride (0.08 mg/kg body weight), butorphanol tartrate (0.2 mg/kg), and midazolam (0.4 mg/kg). Briefly, 60 minutes postadministration of the solvent, ONO-1600586, or rivaroxaban, venous thrombi were induced in rabbit jugular veins by ligations and luminal stenosis. To induce luminal stenosis, a 1 mm polyethylene tube was placed outside the vessel. Both the jugular vein and polyethylene tube were ligated 4 cm upstream of the ligature, and the tube was removed (Supplementary Figure 5). Next, 6 hours after stasis in the jugular vein, the rabbits were infused with heparin (500 U/kg, i.v.). They were then euthanized with an overdose of pentobarbital (60 mg/kg, i.v.), and the jugular veins were sampled. In this model, the animals were not perfused with phosphate-buffered saline because the thrombi were fragile. The venous thrombi were immediately removed from the venous wall and weighed.

[5] = system: PT and aPTT; experiment: PT and aPTT of human blood with inhibitor added in vitro; format: biochemical; conditions: ONO-1600586 3 μmol/L, rivaroxaban 1 μmol/L
[6] = 75 minutes after oral administration, ONO-1600586 5, 15, 50 mg/kg, rivaroxaban 1.5, 5, 15 mg/kg
[7] = 4.5 hours after oral administration, ONO-1600586 50 mg/mL, rivaroxaban 15 mg/mL (so in the source)

In the case of `O=C(NC[C@H]1CN(c2ccc(N3CCOCC3=O)cc2)C(=O)O1)c1ccc(Cl)s1` [rivaroxaban], the “PT after oral administration” value [1, 6] is reported as “dose-dependently prolonged”, the “aPTT after oral administration” value [1, 6] is reported as “dose-dependently prolonged” and the “PT after oral administration” value [1, 7] is reported as “prolonged”. The “aPTT after oral administration” value [1, 7] was “prolonged”, the “fibrin formation in the flow chamber” value ([2]; ONO-1600586 3 μM) was “markedly decreased” and the leukocyte adhesion ([2]; ONO-1600586 3 μmol/L) was “did not affect”. For the same compound, the “plasma levels of prothrombin fragment 1 + 2 after perfusion” value ([2]; ONO-1600586 3 μmol/L) was “reduced”, the platelet covering area ([2]; ONO-1600586 3 μmol/L) was “did not affect” and the “FXa activity in the plasma after perfusion” value [2] was “reduced”. The “PT after oral administration” value [3] was “prolonged”, the “aPTT after oral administration” value [3] was “prolonged” and the “stasis-induced venous thrombus weight compared with control” value [4] was “significantly reduced; also recorded: similarly reduced”. The “PT compared with control” value [5] was 1.9 fold, the “aPTT compared with control” value [5] was 1.8 fold and the PT ([5]; n = 8) was 19 ± 3 s. It also gave an aPTT ([5]; n = 8) of 62 ± 5 s.
